Tests used:
ApoE/LDLR−/− mice [1] = experiment: Example 3 second part: histological assessment of area and composition of atherosclerotic plaque in BCA; assay type: in vivo; settings: eight weeks
From the text: For the determination of atherosclerotic plaque area and composition isolated brachiocephalic artery (BCA) was dissected, fixed in 4% buffered formalin, and embedded in paraffin. 5 μm-thick serial sections of BCA were collected from the proximal to distal part of the artery. Staining with Unna's orcein combined with Martius, Scarlet and Blue trichrome (OMSB) was applied on every tenth section (50 μm interval between each section) for quantitative analysis of atherosclerotic plaques. The areas of particular components of atherosclerotic plaque as well as artery lumen and wall were determined after Columbus-based software processing (FIG. 9) using specially-designed algorithm as described in Gajda M, Jasztal A, Banasik T, Jasek-Gajda E, Chlopicki S. Combined orcein and martius scarlet blue (OMSB) staining for qualitative and quantitative analyses of atherosclerotic plaques in brachiocephalic arteries in apoE/LDLR−/− mice. Histochem Cell Biol 2017. doi:10.1007/s00418-017-1538-8. The parameters analyzed include vessel wall area (VWA), internal vessel area (IVA=plaque area+lumen area), plaque area (expressed as percent of internal wall area: plaque/IWA), and lumen area (expressed as percent of internal wall area: lumen/IWA).

ApoE/LDLR−/− mice [2] = experiment: Example 3 first part: MRI assessment of endothelium-dependent vasodilatation (FMD in FA, Ach in AA), young mice; assay type: in vivo
Protocol: Mice were randomly assigned to one of four experimental groups: control (untreated group) and three groups treated with vitamin K2 at a dose of 0.05, 0.5, and 5 mg/kg b.w./day, respectively. End-point measurements were performed at the age of 10-16 weeks.
Magnetic resonance imaging (MRI) experiments were performed using a 9.4T scanner (BioSpec 94/20 USR, Bruker, Germany) located in the Department of Magnetic Resonance Imaging, Institute of Nuclear Physics, Polish Academy of Sciences in Krakow. During the experiment, mice were anaesthetized using isoflurane (Aerrane, Baxter Sp. z o. o., Poland, 1.7 vol %) in an oxygen and air (1:2) mixture and imaged in the supine position. Activity of the heart, respiration, and body temperature (maintained at 37° C. using circulating warm water) were monitored using a Monitoring and Gating System (SA Inc., Stony Brook, N.Y., USA).
Endothelial function was assessed based on vascular responses to acetylcholine (Ach) administration in brachiocephalic artery (BCA), left common carotid artery (LCA) (FIGS. 6 A and B) and abdominal aorta (AA) (FIG. 6C) as well as to responses to increase in flow (flow-mediated dilatation, FMD) in femoral artery (FA) (FIG. 6D) as described in Bar A, Skorka T, Jasinski K, Sternak M, Bartel Z, Tyrankiewicz U, et al. Retrospectively-gated MRI for in vivo assessment of endothelium-dependent vasodilatation and endothelial permeability in murine models of endothelial dysfunction. NMR Biomed 2016; 29(8):1088.; Sternak M, Bar A, Adamski M G, Mohaissen T, Marczyk B, Kieronska A, et al. The Deletion of Endothelial Sodium Channel α (αENaC) Impairs Endothelium-Dependent Vasodilation and Endothelial Barrier Integrity in Endotoxemia in Vivo. Front Pharmacol 2018; 9:178. doi:10.3389/fphar.2018.00178.; and Bar A, Olkowicz M, Tyrankiewicz U, Kus E, Jasinski K, Smolenski R T, et al. Functional and Biochemical Endothelial Profiling In Vivo in a Murine Model of Endothelial Dysfunction; Comparison of Effects of 1-Methylnicotinamide and Angiotensin-converting Enzyme Inhibitor. Front Pharmacol 2017; 8:183. doi:10.3389/fphar.2017.00183.).
Vasomotor response was examined by comparing two time-resolved 3D images of the vessels prior to and 25 minutes after intraperitoneal Ach administration (Sigma-Aldrich, Poznan Poland: 50 μl, 16.6 mg/kg), as well as prior to and 5 minutes after vessel occlusion. Images were acquired using the cine IntraGate™ FLASH 3D sequence, reconstructed with the IntraGate 1.2.b.2 macro (Bruker). End-diastolic volumes of vessels were analyzed using ImageJ software 1.46r (NIH Bethesda, Md., USA) and scripts written in Matlab (MathWorks, Natick, Mass., USA). Imaging parameters included the following: repetition time (TR)—6.4 ms, echo time (TE)—1.4 ms, field of view (FOV)—30×30×5 mm3, matrix size—256×256×30, flip angle (FA)—30°, and number of accumulations (NA)—15, reconstructed to 7 cardiac frames. Total scan time was 10 minutes.

matrix gla protein (MGP) = experiment: Clinical study: blood analysis of matrix gla protein carboxylation; assay type: in vivo, human; settings: kidney transplant patients, 360 ug/day, 8 weeks
Protocol: Participants were enrolled in a clinical trial in which the effects of vitamin K2 were determined for patients who had recently undergone a kidney transplant. At the beginning of the study, patients were subjected to a non-invasive pulse wave velocity measurement to measure arterial stiffness/flexibility, as well as blood analysis. The study participants were then instructed to receive a specific daily dose of MenaQ7 vitamin K2 menaquinone-7 (360 ug/day) for a total of 8 weeks. At the end of 8 weeks, patients were again examined with a follow-up examination, a non-invasive pulse wave velocity measurement and blood analysis and drug treatment was discontinued.
As part of the blood analysis, carboxylated matrix gla protein (MGP) was measured as a direct measure of vitamin K2 activity. The carboxylated MGP inhibits calcification of blood vessels and Vitamin K2 stimulates carboxylation of MGP.

ApoE/LDLR−/− mice [3] = experiment: Example 2: histological assessment of plaque size, composition and vessel wall area in BCA; assay type: in vivo; settings: two months
From the text: Plaque size and composition as well as vessel wall area (VWA) in BCA-Histological assessment, cross-section method, BCA cross-sections: total 13000 slides, Photographed: 1214 slides
For the determination of atherosclerotic plaque area and composition BCA was dissected, fixed in 4% buffered formalin and embedded in paraffin. 5 μm-thick serial sections of BCA were collected from proximal, middle and distal parts of artery. Originally developed staining with Unna's orcein combined with Martius, Scarlet and Blue trichrome (OMSB), was applied on every tenth section (50 μm interval between each section) for visualization of collagen, elastin, fibrin, red blood cells and vascular smooth muscle cells within atherosclerotic plaque. The areas of particular components of atherosclerotic plaque as well as artery lumen and wall were determined after Columbus-based software processing (FIG. 1B) using a previously developed algorithm [Gajda M, Jasztal A, Banasik T, Jasek-Gajda E, Chlopicki S. Combined orcein and martius scarlet blue (OMSB) staining for qualitative and quantitative analyses of atherosclerotic plaques in brachiocephalic arteries in apoE/LDLR−/− mice. Histochem Cell Biol 2017. doi:10.1007/s00418-017-1538-81.

[4] = lower dose, not visible for entire vessel
[5] = 0.05 mg/kg b.w./day, eight weeks
[6] = 0.05 mg/kg b.w./day, four weeks, 15-week-old mice

## CC(C)=CCC/C(C)=C/CC/C(C)=C/CC/C(C)=C/CC/C(C)=C/CC/C(C)=C/CC/C(C)=C/CC1=C(C)C(=O)c2ccccc2C1=O [MK-7, menaquinone-7]
ApoE/LDLR−/− mice [1]; either low or high dose
  plaque and lumen area expressed as percent of IWA: did not change
ApoE/LDLR−/− mice [1]; low (0.03) or high (10 mg/kg b.w./day) dose
  plaque size vs non-treated mice: not different
ApoE/LDLR−/− mice [1]; low and high dose, 24-week-old mice
  decrease in vessel wall area (VWA): about 5%
ApoE/LDLR−/− mice [1]; [4]
  internal wall area (IWA): decreased only in the middle part of the vessel
ApoE/LDLR−/− mice [2]; [5]
  Ach response in AA, volume change: −0.65%
  FMD in FA, volume change: 28.34%
ApoE/LDLR−/− mice [2]; [6]
  Ach response in AA, volume change: −1.59%
  FMD in FA, volume change: 33.26%
ApoE/LDLR−/− mice [2]; 0.05 mg/kg b.w./day, two weeks
  endothelial function (FMD-FA and ACH-AA): not sufficient to improve endothelial function
ApoE/LDLR−/− mice [2]; 0.5 mg/kg b.w./day, two weeks
  Ach response in AA, volume change: 1.52%
  FMD in FA, volume change: 28.57%
ApoE/LDLR−/− mice [2]; 5 mg/kg b.w./day, two weeks
  Ach response in AA, volume change: 0.16%
  FMD in FA, volume change: 26.55%
ApoE/LDLR−/− mice [2]; 0.5 and 5 mg/kg b.w./day, four weeks
  improvement in endothelial function compared with low dose for 4 weeks: not superior
Matrix gla protein (MGP)
  mean reduction of levels of uncarboxylated MGP: 55%
ApoE/LDLR−/− mice [3]; either low or high dose
  effect on plaque size: did not result in a beneficial effect
  plaque and lumen area expressed as percent of IWA: did not change
ApoE/LDLR−/− mice [3]; [4]
  internal wall area (IWA): decreased only in the middle part of the vessel
ApoE/LDLR−/− mice [3]; similarly after low and high dose
  decrease in lipid core expressed as percent of plaque: about 17%
ApoE/LDLR−/− mice [3]; similarly for low (0.03) and high (10 mg/kg b.w./day) dose
  decrease in vessel wall area (VWA) of BCA: about 5%
ApoE/LDLR−/− mice [3]; treated vs untreated groups
  content of collagen in plaque: lack of differences
